According to patent publication US7259004B1, “Endophytic streptomycetes from higher plants with biological activity” (Montana State University, priority 2002, dated 2007):
Converted amounts (≈) assume the structure as drawn.

Legend:
[1] = system: Enterococcus faecalis ATCC 29212; test: disk diffusion assay; assay type: cell-based; conditions: 10 micrograms per disk; ciprofloxacin 5, vancomycin 30 micrograms per disk; 35° C.
[2] = system: Staphylococcus aureus ATCC 29213; test: disk diffusion assay; assay type: cell-based; conditions: 10 micrograms per disk; ciprofloxacin 5, vancomycin 30 micrograms per disk; 35° C.
[3] = system: Neisseria gonnorhea ATCC 49226; test: disk diffusion assay; assay type: cell-based; conditions: 10 micrograms per disk; ciprofloxacin 5, vancomycin 30 micrograms per disk; GC agar with 1% growth supplement with 5% CO2
[4] = system: Streptococcus pneumoniae ATCC 49619; test: disk diffusion assay; assay type: cell-based; conditions: 10 micrograms per disk; ciprofloxacin 5, vancomycin 30 micrograms per disk; MHA with 5% dsb. and 5% CO2
[5] = system: Enterococcus faecium ATCC 49624; test: disk diffusion assay; assay type: cell-based; conditions: 10 micrograms per disk; ciprofloxacin 5, vancomycin 30 micrograms per disk; 35° C.
[6] = system: Enterococcus faecium ATCC 51559; test: disk diffusion assay; assay type: cell-based; conditions: 10 micrograms per disk; ciprofloxacin 5, vancomycin 30 micrograms per disk; 35° C.
[7] = system: Staphylococcus aureus ATCC 33591 (MRSA); test: microbroth dilution MIC; assay type: cell-based; conditions: Staphylococcus aureus; Table 15
S. epidermis 12228 = test: microbroth dilution MIC; assay type: cell-based, Staphylococcus epidermidis; conditions: Staphylococcus epidermidis, ATCC12228; Table 15; read-out: MIC Staphylococcus epidermidis ATCC 12228
E. faecium 49624 = test: microbroth dilution MIC; assay type: cell-based, Enterococcus faecium; conditions: Enterococcus faecium, ATCC49624; Table 15; read-out: MIC Enterococcus faecium ATCC 49624
S. aureus 29213 = test: microbroth dilution MIC; assay type: cell-based, Staphylococcus aureus; conditions: Staphylococcus aureus, ATCC29213; Table 15; read-out: MIC Staphylococcus aureus ATCC 29213
[8] = system: Listeria monocytogenes 19114; test: microbroth dilution MIC; assay type: cell-based; conditions: Listeria monocytogenes, ATCC19114; Table 15; read-out: MIC Listeria monocytogenes ATCC 19114
[9] = system: Listeria monocytogenes 19115; test: microbroth dilution MIC; assay type: cell-based; conditions: Listeria monocytogenes, ATCC19115; Table 15; read-out: MIC Listeria monocytogenes ATCC 19115
[10] = system: Staphylococccus simulans 11631; test: microbroth dilution MIC; assay type: cell-based, Staphylococcus simulans; conditions: Staphylococcus simulans, ATCC11631; Table 15; read-out: MIC Staphylococcus simulans ATCC 11631
[11] = system: Staphylococccus aureus 27734; test: microbroth dilution MIC; assay type: cell-based, Staphylococcus aureus; conditions: Staphylococcus aureus, ATCC27734; Table 15; read-out: MIC Staphylococcus aureus ATCC 27734
[12] = system: Streptococcus pneumoniae 49619; test: microbroth dilution MIC; assay type: cell-based; conditions: Streptococcus pneumoniae, ATCC49619; Table 15; read-out: MIC Streptococcus pneumoniae ATCC 49619
[13] = system: Shigella dysenteriae ATCC 11835; test: microbroth dilution MIC; assay type: cell-based; conditions: ATCC11835, read-out: MIC Shigella dysenteriae ATCC 11835
[14] = system: Staphylococcus aureus GISA, ATCC 700787; test: microbroth dilution MIC; assay type: cell-based; conditions: ATCC700787, read-out: MIC Staphylococcus aureus GISA, ATCC 700787
[15] = system: Streptococcus pneumoniae ATCC 70674; test: microbroth dilution MIC; assay type: cell-based; conditions: ATCC70674, read-out: MIC Streptococcus pneumoniae ATCC 70674
[16] = system: Streptococcus pneumoniae ATCC 70676; test: microbroth dilution MIC; assay type: cell-based; conditions: ATCC70676, read-out: MIC Streptococcus pneumoniae ATCC 70676
B. subtilis 1A757 = test: microbe, parasite or virus in culture; assay type: cell-based, Bacillus subtilis
S. aureus ATCC 6583P = test: MIC with and without double stranded DNA; assay type: cell-based, Staphylococcus aureus; conditions: Staphylococcus aureus, ATCC6583P, read-out: MIC S. aureus ATCC 6583P
[17] = system: Cell wall synthesis in Bacillus subtilis; test: macromolecular synthesis whole cell assay, [3H]N-acetyl glucosamine incorporation; assay type: cell-based; conditions: 1×MIC
[18] = system: Staphyloccus aureus MH II Eli Lilly Co.; test: microbroth dilution MIC; conditions: Staphylococcus aureus, read-out: MIC Staphyloccus aureus MH II Eli Lilly Co.

Q: What does the source list for CN[C@H](CC(C)C)C(=O)N[C@H]1C(=O)N[C@@H](CC(N)=O)C(=O)N[C@H]2C(=O)N[C@H]3C(=O)N[C@H](C(=O)N[C@H](C(=O)O)c4cc(O)cc(O)c4-c4cc3ccc4O)[C@H](O)c3ccc(c(Cl)c3)Oc3cc2cc(c3O[C@@H]2O[C@H](CO)[C@@H](O)[C@H](O)[C@H]2O[C@H]2C[C@](C)(N)[C@H](O)[C@H](C)O2)Oc2ccc(cc2Cl)[C@H]1O [Vancomycin, reference compound]?
A: diameter of the zone of inhibition, Enterococcus faecalis ATCC 29212 [1]: 18 mm; diameter of the zone of inhibition, Staphylococcus aureus ATCC 29213 [2]: 15 mm; diameter of the zone of inhibition, Neisseria gonnorhea ATCC 49226 [3]: 13 mm; diameter of the zone of inhibition, Streptococcus pneumoniae ATCC 49619 [4]: 20 mm; diameter of the zone of inhibition, Enterococcus faecium ATCC 49624 [5]: 22 mm; diameter of the zone of inhibition, Enterococcus faecium ATCC 51559 [6]: 0 mm; MIC [7]: 2 µg/mL (≈ 1.38 µM); MIC (S. epidermis 12228): 1 µg/mL (≈ 0.69 µM); MIC (E. faecium 49624): 0.5 µg/mL (≈ 0.345 µM); MIC (S. aureus 29213): 1 µg/mL (≈ 0.69 µM); MIC [8]: 1 µg/mL (≈ 0.69 µM); MIC [9]: 1 µg/mL (≈ 0.69 µM); MIC [10]: 1 µg/mL (≈ 0.69 µM); MIC [11]: 1 µg/mL (≈ 0.69 µM); MIC [12]: 0.125 µg/mL (≈ 0.0863 µM); MIC [13]: 2 µg/mL (≈ 1.38 µM); MIC [14]: 8 µg/mL (≈ 5.52 µM); MIC [15]: 0.25 µg/mL (≈ 0.173 µM); MIC [16]: 0.25 µg/mL (≈ 0.173 µM); 1×MIC against Bacillus subtilis (B. subtilis 1A757): 0.25 micrograms/ml; increase of MICs when DNA was added (B. subtilis 1A757): not affected; MIC (B. subtilis 1A757; Bacillus subtilis, 1A757, read-out: MIC B. subtilis 1A757): 0.125 µg/mL (≈ 0.0863 µM); MIC (S. aureus ATCC 6583P): 0.5 µg/mL (≈ 0.345 µM); % [3H]N-acetyl glucosamine (Cell wall synthesis) incorporation of that of the untreated culture ([17]; 5 min): 33%; % [3H]N-acetyl glucosamine (Cell wall synthesis) incorporation of that of the untreated culture ([17]; 10 min): 41%; MIC [18]: 0.06 µg/mL (≈ 0.0414 µM)
